What follows are compounds tested against T1, hGPR120 (Homo sapiens, UniProt Q5NUL3) (assay: Measurement of activity of GPR120 agonist (cell-based calcium fluorescence assay)). Conditions: CHO-K1 cells expressing Ga16 and hGPR120, Calcium 5 dye fluorescence; activity class; read-out: EC50.
T1 construct: expressed in transfected cells; host or cells: CHO-K1
T1 sequence (Q5NUL3 1-361): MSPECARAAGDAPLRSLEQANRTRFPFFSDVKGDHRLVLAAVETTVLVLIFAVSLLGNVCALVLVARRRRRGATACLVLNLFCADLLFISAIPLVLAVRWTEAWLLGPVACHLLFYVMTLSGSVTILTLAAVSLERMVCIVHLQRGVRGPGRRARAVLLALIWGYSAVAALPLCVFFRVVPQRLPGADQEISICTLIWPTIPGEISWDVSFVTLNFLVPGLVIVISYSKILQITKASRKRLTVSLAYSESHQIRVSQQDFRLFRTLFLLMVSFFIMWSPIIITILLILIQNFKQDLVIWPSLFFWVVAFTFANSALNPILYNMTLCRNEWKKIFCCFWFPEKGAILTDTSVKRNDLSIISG
Summary of the method: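 CHO-K1 cells co-expressing Gα16 and hGPR120, plated 18 h, loaded with Calcium 5 dye for 1 h at 37 °C, then given serially diluted agonists (final 0.5% DMSO). Fluorescence increase expressed as relative % of the 1% DMSO-only signal.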
Work on `O=C(O)CCCSc1ccc(-c2cccnc2OCC2CC2)cc1` [Example 124, 4-[4-(2-cyclopropylmethoxy-pyridin-3-yl)-phenylsulfanyl]-butyric acid] yielded an EC50 of 200 to 2000 nM. `O=C(O)CCCCOc1c(F)cc(-c2cccnc2OC2CCOC2)cc1F` (stereo not shown) [Example 240, 5-[2,6-difluoro-4-(2-tetrahydrofuran-3-yloxy-3-pyridyl)phenoxy]pentanoic acid] was tested, and the EC50 was 200 to 2000 nM. `O=C(O)CCCSc1c(F)cc(-c2cccnc2SC2CCCC2)cc1F` [Example 147, 4-[4-(2-cyclopentylsulfanyl-pyridin-3-yl)-2,6-difluoro-phenylsulfanyl]-butyric acid] was tested, and the EC50 was < 200 nM. For `O=C(O)CCCOc1c(F)cc(-c2cccnc2N2CCOCC2)cc1F` [Example 111, 4-[2,6-difluoro-4-(2-morpholino-3-pyridyl)phenoxy]butanoic acid], the EC50 was > 20000 nM. For `CCSc1ncccc1-c1cc(F)c(OCCCC(=O)O)c(F)c1` [Example 206, 4-[4-(2-ethylsulfanyl-pyridin-3-yl)-2,6-difluoro-phenoxy]-butanoic acid], the EC50 was < 200 nM. `O=C(O)CCCSc1c(F)cc(-c2cccnc2OC2CCCC2)cc1F` [Example 145, 4-[4-(2-cyclopentyloxy-pyridin-3-yl)-2,6-difluoro-phenylsulfanyl]-butyric acid] was tested, and the EC50 was < 200 nM. For `C=CCOc1ncccc1-c1cc(F)c(OCCCC(=O)O)c(F)c1` [Example 269, 4-[4-(2-allyloxy-pyridin-3-yl)-2,6-difluoro-phenoxy]-butyric acid], the EC50 was 200 to 2000 nM. `O=C(O)CCCOc1c(F)cc(-c2cccnc2SC2CC2)cc1F` [Example 205, 4-[4-(2-cyclopropylsulfanyl-pyridin-3-yl)-2,6-difluoro-phenoxy]-butanoic acid] was tested, and the EC50 was 200 to 2000 nM. `CC(C)Oc1ccccc1-c1ccc(OCCCC(=O)O)cc1` [Example 57, 4-(2′-isopropoxy-biphenyl-4-yloxy)-butyric acid] gave an EC50 of 200 to 2000 nM. `CC(C)Oc1cccc(-c2ccc(SCCCC(=O)O)cc2)n1` [Example 130, 4-[4-(6-isopropoxy-pyridin-2-yl)-phenylsulfanyl]-butyric acid] was tested, and the EC50 was < 200 nM. For `CCCSc1cccc(-c2cc(F)c(SCCCC(=O)O)c(F)c2)n1` [Example 141, 4-[2,6-difluoro-4-(6-propylsulfanyl-pyridin-2-yl)-phenylsulfanyl]-butyric acid], the EC50 was < 200 nM. `CC(C)Sc1cccc(-c2ccc(OCCCC(=O)O)c(F)c2)n1` [Example 5, 4-[2-fluoro-4-(6-isopropylsulfanyl-2-pyridyl)phenoxy]butyric acid] showed an EC50 of 200 to 2000 nM. `COCCOc1ncccc1-c1cc(F)c(OCCCC(=O)O)c(F)c1` [Example 71, 4-{2,6-difluoro-4-[2-(2-methoxy-ethoxy)-pyridin-3-yl]-phenoxy}-butyric acid] was tested, and the EC50 was 2000 to 20000 nM. In the case of `CCCSc1ncccc1-c1cc(F)c(SCCCC(=O)O)c(F)c1` [Example 168, 4-[2,6-difluoro-4-(2-propylsulfanyl-pyridin-3yl)-phenylsulfanyl]-butyric acid], the EC50 is reported as < 200 nM. `O=C(O)CCCOc1c(F)cc(-c2cc(F)ccc2NC2CCCC2)cc1F` [Example 96, 4-[4-[2-(cyclopentylamino)-5-fluoro-phenyl]-2,6-difluoro-phenoxy]butanoic acid] was tested, and the EC50 was < 200 nM. In the case of `CC(CCC(=O)O)Sc1ccc(-c2cccnc2OC2CCCC2)cc1` (stereo not shown) [Example 199, 4-[4-(2-cyclopentyloxy-pyridin-3-yl)-phenylsulfanyl]-pentanoic acid], the EC50 is reported as < 200 nM. `O=C(O)CCCOc1cc(F)c(-c2cccnc2SC2CCC2)c(F)c1` [Example 67, 4-[4-(2-cyclobutylsulfanyl-pyridin-3-yl)-3,5-difluoro-phenoxy]-butyric acid] showed an EC50 of 200 to 2000 nM. In the case of `O=C(O)CCCSc1ccc(-c2cccnc2OC2CCC2)cc1F` [Example 172, 4-[4-(2-cyclobutoxy-pyridin-3-yl)-2-fluoro-phenylsulfanyl]-butyric acid], the EC50 is reported as < 200 nM. For `C[C@@H](CCC(=O)O)Oc1c(F)cc(-c2cccnc2SC2CCC2)cc1F` [Example 114, (4S)-4-[4-(2-cyclobutylsulfanyl-3-pyridyl)-2,6-difluoro-phenoxy]pentanoic acid], the EC50 was < 200 nM. With `CC(C)Sc1cccc(-c2cc(F)c(OCCCC(=O)O)c(F)c2)n1` [Example 2, 4-[2,6-difluoro-4-(6-isopropylsulfanyl-2-pyridyl)phenoxy]butyric acid] the EC50 was < 200 nM. `O=C(O)CCCOc1c(F)cc(-c2cccc(SC3CCC3)n2)cc1F` [Example 20, 4-[4-(6-cyclobutylsulfanyl-2-pyridyl)-2,6-difluoro-phenoxy]butyric acid] was tested, and the EC50 was < 200 nM. `Cc1cc(-c2cccc(OC3CCC3)n2)ccc1OCCCC(=O)O` [Example 26, 4-[4-[6-(cyclobutoxy)-2-pyridyl]-2-methyl-phenoxy]butyric acid] was tested, and the EC50 was < 200 nM. Compound `O=C(O)CCCCCOc1c(F)cc(-c2cccnc2SC2CCCC2)cc1F` [Example 275, 6-[4-(2-cyclopentylsulfanyl-3-pyridyl)-2,6-difluoro-phenoxy]hexanoic acid] has an EC50 of 200 to 2000 nM. `CC(C)Nc1ccccc1-c1ccc(OCCCC(=O)O)cc1` [Example 87, 4-[4-[2-(isopropylamino)phenyl]phenoxy]butanoic acid] was tested, and the EC50 was 200 to 2000 nM. Compound `O=C(O)CCCCOc1c(F)cc(-c2cccnc2OC2CCOCC2)cc1F` [Example 241, 5-[2,6-difluoro-4-(2-tetrahydropyran-4-yloxy-3-pyridyl)phenoxy]pentanoic acid] has an EC50 of 200 to 2000 nM. For `C[C@H](CCC(=O)O)Oc1c(F)cc(-c2cccc(OC3CCC3)c2)cc1F` [Example 116, (4R)-4-[4-[3-(cyclobutoxy)phenyl]-2,6-difluoro-phenoxy]pentanoic acid], the EC50 was < 200 nM. With `CC(C)Oc1ncccc1-c1cc(F)c(OCCCC(=O)O)c(F)c1` [Example 43, 4-[2,6-difluoro-4-(2-isopropoxy-pyridin-3-yl)-phenoxy]-butyric acid] the EC50 was 200 to 2000 nM. Compound `O=C(O)CCCOc1c(F)cc(-c2cccnc2OC2CCOCC2)cc1F` [Example 68, 4-{2,6-difluoro-4-[2-(tetrahydro-pyran-4-yloxy)-pyridin-3-yl]-phenoxy}-butyric acid] has an EC50 of 200 to 2000 nM. With `CC(C)Sc1cccc(-c2ccc(OCCCC(=O)O)cc2)n1` [Example 210, 4-[4-(6-isopropylsulfanyl-2-pyridyl)phenoxy]butanoic acid] the EC50 was < 200 nM. In the case of `CCCOc1c(F)cc(C)cc1-c1ccc(SCCCC(=O)O)c(F)c1` [Example 191, 4-(3,3′-difluoro-5′-methyl-2′-propoxy-biphenyl-4-ylsulfanyl)-butyric acid], the EC50 is reported as < 200 nM. In the case of `O=C(O)CCCOc1c(F)cc(-c2cccnc2-n2cccc2)cc1F` [Example 109, 4-[2,6-difluoro-4-(2-pyrrol-1-yl-3-pyridyl)phenoxy]butanoic acid], the EC50 is reported as 200 to 2000 nM. For `CCCSc1ncccc1-c1cc(F)c(SCCCCCC(=O)O)c(F)c1` [Example 279, 6-[2,6-difluoro-4-(2-propylsulfanyl-pyridin-3-yl)-phenylsulfanyl]-hexanoic acid], the EC50 was 200 to 2000 nM. For `O=C(O)CCCSc1ccc(-c2cc(F)ccc2OC2CCCC2)cc1F` [Example 180, 4-(2′-cyclopentyloxy-3,5′-difluoro-biphenyl-4-ylsulfanyl)-butyric acid], the EC50 was 200 to 2000 nM. With `O=C(O)CCCSc1c(F)cc(-c2cccnc2SC2CCC2)cc1F` [Example 142, 4-[4-(2-cyclobutylsulfanyl-pyridin-3-yl)-2,6-difluoro-phenylsulfanyl]-butyric acid] the EC50 was < 200 nM.

From patent US10221138B2, “Biaryl derivatives as GPR120 agonists” (LG CHEM, LTD., priority 2013, dated 2019)
